Laboratory results published in patent US11873287B2, “Piperidine-2,6-dione derivatives and ulcerative colitis treating” (TIANJIN HEMAY PHARMACEUTICAL SCI-TECH CO., LTD, priority 2016, dated 2024).

What was measured:
[1] = test system: DSS-Induced inflammatory Bowel Disease Models in Mice; assay: DSS-induced inflammatory bowel disease model in mice (Biological Example 2, 0.9% DSS); format: in vivo, C57BL/6 mice; conditions: 100 mg/Kg i.g. Q.D; 0.9% DSS 5 days; end of experiment
Procedure: 66 female C57BL/6 mice were randomly divided into 6 groups: normal control group, model control group, cyclosporine A (25 mg/Kg), 5-ASA (100 mg/Kg), the compound in Example 27 (30 mg/Kg) and the compound in Example 26 (30 mg/Kg). There were 11 mice in each group (see Table 4 below). Besides the normal control group, the remaining groups were induced with 0.9% DSS for 5 days. The day of induction was the first day of the test and then normal drinking water was administered for 4 days. The normal control group was administered with normal drinking water all the time. The model control group, 5-ASA group, the compound in Example 27 group and the compound in Example 26 group were administered with 1% CMC-Na or the corresponding drug every day from the first day of the experiment to the end of the experiment. The cyclosporine A group was administered with cyclosporine A every day from the first day of experiment to the fifth day of the experiment and was administered with the corresponding volume of 1% CMC-Na every day from the sixth day to the end of the experiment due to toxicity. The normal control group was administered with the corresponding volume of 1% CMC-Na every day. The animals were treated and the indexes were tested at the end of the experiment.
The compound in Example 27, the compound in Example 26, 5-ASA or Cyclosporine A: Preparation Method: Suspended with 1% CMC-Na, and prepared when it was needed.
One-Way Anova test was performed with SPSS 17.0. The colony length was analyzed statistically between groups.

[2] = test system: DSS-Induced inflammatory Bowel Disease Models in Mice; assay: DSS-induced inflammatory bowel disease model in mice (Biological Example 5, 1.3% DSS); format: in vivo, C57BL/6 mice; conditions: 30 mg/Kg i.g. Q.D, 1.3% DSS days 0-5; for inhibition in vivo at 30 mg/kg: Mus musculus, po, read-out: Inhibitory Rate of Colonic Reduction
Procedure: 40 healthy female C57BL/6 mice having weight of 16-19 g were randomly divided into 4 groups in accordance with weight. There were 10 mice in each group (see Table 6 below). The first day of the experiment was recorded as Day 0. The administration regimen and induction regimen were detailed in Table 6. The change in weight of experimental animals was recorded every day. […] Samples of animal colonic tissues were obtained to measure the length. One-way ANOVA analysis of mice weights was performed by SPSS22. Statistical analyses between groups were performed. Mann-Whitney U non-parametric test was performed on the length of colon.
The experimental method used in the present biological example is identical to those in Biological Example 3.
One-way ANOVA analysis of mice body weights and colonic weights per length was performed by SPSS22. Statistical analyses between groups were performed.
Calculation Formula of Inhibitory Rate of Colonic Reduction: (Length of Colon in Administration Group−Length of Colon in Model Group)/(Length of Colon in Blank Group−Length of Colon in Model Group)

ICR mice = assay: Acute toxicity experiment of single oral administration in mice; format: in vivo; conditions: 1000 mg/Kg single oral dose
How it was run: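 Fasted ICR mice (19–21 g, 3 male and 3 female per group) received a single oral dose of 1000 mg/Kg, given first to one of each sex, then to the remaining four. Acute signs were scored over the first 15 min, then state, deaths and daily body weight over 7 days.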

| SMILES | colon length (Mean ± SD) [1] [cm] | Length (cm, Mean ± SD) of colon [2] [cm] | inhibition in vivo at 30 mg/kg [2] [%] | Daily Body Weight of Tested Female Mice (Mean ± SD) (ICR mice; Day 1) [g] | Daily Body Weight of Tested Male Mice (Mean ± SD) (ICR mice; Day 1) [g] | Daily Body Weight of Tested Female Mice (Mean ± SD) (ICR mice; Day 2) [g] | Daily Body Weight of Tested Male Mice (Mean ± SD) (ICR mice; Day 2) [g] | Daily Body Weight of Tested Female Mice (Mean ± SD) (ICR mice; Day 3) [g] | Daily Body Weight of Tested Male Mice (Mean ± SD) (ICR mice; Day 3) [g] | Daily Body Weight of Tested Female Mice (Mean ± SD) (ICR mice; Day 4) [g] | Daily Body Weight of Tested Male Mice (Mean ± SD) (ICR mice; Day 4) [g] | Daily Body Weight of Tested Female Mice (Mean ± SD) (ICR mice; Day 5) [g] | Daily Body Weight of Tested Male Mice (Mean ± SD) (ICR mice; Day 5) [g] | Daily Body Weight of Tested Female Mice (Mean ± SD) (ICR mice; Day 6) [g] | Daily Body Weight of Tested Male Mice (Mean ± SD) (ICR mice; Day 6) [g] | Daily Body Weight of Tested Female Mice (Mean ± SD) (ICR mice; Day 7) [g] | Daily Body Weight of Tested Male Mice (Mean ± SD) (ICR mice; Day 7) [g] | Summary of toxic response of tested animals in 7 Days (ICR mice; Female) | Summary of toxic response of tested animals in 7 Days (ICR mice; Male) |
| --- | --- | --- | --- | --- | --- | --- | --- | --- | --- | --- | --- | --- | --- | --- | --- | --- | --- | --- | --- |
| Nc1ccc(O)c(C(=O)O)c1 [Example 5-ASA, 5-aminosalicylic acid, reference compound] | 6.1 ± 0.4 |  |  |  |  |  |  |  |  |  |  |  |  |  |  |  |  |  |  |
| CS(=O)(=O)CCN1C(=O)CCC(N2C(=O)c3cccc(N)c3C2=O)C1=O (stereo not drawn) [Example 13, 4-amino-2-(1-(2-methylsulfonylethyl)-2,6-dioxopiperidin-3-yl)isoindolin-1,3-dione] |  | 6.9 ± 0.4 | 100 | 18.8 ± 1.1 | 19.6 ± 0.7 | 21.3 ± 0.3 | 23.1 ± 0.6 | 21.8 ± 0.4 | 24.4 ± 0.9 | 21.8 ± 0.4 | 24.4 ± 0.9 | 23.0 ± 0.5 | 26.5 ± 0.5 | 23.2 ± 0.9 | 28.3 ± 1.3 | 23.6 ± 0.9 | 28.4 ± 0.8 | Abnormality was not observed in 7 days of the test | Abnormality was not observed in 7 days of the test |
| COCCCN1C(=O)CCC(N2C(=O)c3cccc(F)c3C2=O)C1=O (stereo not drawn) [Example 17, 4-fluoro-2-(1-(3-methoxypropyl)-2,6-dioxopiperidin-3-yl)isoindolin-1,3-dione] |  | 7.0 ± 0.4 | 109 | 18.6 ± 1.0 | 19.0 ± 0.7 | 21.9 ± 0.4 | 24.0 ± 0.7 | 22.7 ± 0.4 | 24.6 ± 0.8 | 22.7 ± 0.4 | 24.6 ± 0.8 | 23.0 ± 0.4 | 26.1 ± 0.7 | 23.1 ± 1.0 | 28.1 ± 0.6 | 22.7 ± 1.2 | 29.3 ± 1.0 | Motor dysfunction in one animal was observed 10 minutes after | Motor dysfunction in two animals was observed 30 minutes after |
| CCOCCN1C(=O)CCC(N2C(=O)c3cccc(F)c3C2=O)C1=O (stereo not drawn) [Example 20, 4-fluoro-2-(1-(2-ethoxyethyl)-2,6-dioxopiperidin-3-yl)isoindolin-1,3-dione] |  | 6.9 ± 0.6 | 100 | 18.7 ± 0.4 | 18.8 ± 1.0 | 21.6 ± 1.0 | 24.0 ± 1.1 | 22.1 ± 1.0 | 25.3 ± 1.2 | 22.1 ± 1.0 | 25.3 ± 1.2 | 23.0 ± 1.4 | 26.7 ± 1.2 | 23.3 ± 0.2 | 29.0 ± 1.1 | 23.7 ± 0.8 | 29.3 ± 0.7 | Decrease of activity was observed in two animals in 10 minutes | Decrease of activity was observed in one animal 11 minutes after |
| COCCCCN1C(=O)CCC(N2C(=O)c3cccc(N)c3C2=O)C1=O (stereo not drawn) [Example 22, 4-amino-2-(1-(4-methoxybutyl)-2,6-dioxopiperidin-3-yl)isoindolin-1,3-dione] |  | 6.9 ± 0.4 | 100 | 18.5 ± 0.6 | 17.1 ± 0.3 | 21.8 ± 0.3 | 22.9 ± 0.8 | 22.9 ± 0.4 | 23.5 ± 0.9 | 24.0 ± 1.0 | 25.2 ± 0.5 | 25.0 ± 0.4 | 27.2 ± 1.9 | 25.3 ± 0.6 | 27.1 ± 1.8 | 25.6 ± 0.2 | 27.4 ± 1.9 |  |  |
| COCCN1C(=O)CCC(N2C(=O)c3cccc(O)c3C2=O)C1=O (stereo not drawn) [Example 23, 4-hydroxy-2-(1-(2-methoxyethyl)-2,6-dioxopiperidin-3-yl)isoindolin-1,3-dione] |  | 6.9 ± 0.5 | 100 | 19.1 ± 0.6 | 19.4 ± 0.8 | 22.4 ± 0.4 | 24.6 ± 1.2 | 23.0 ± 0.1 | 24.5 ± 0.6 | 23.0 ± 0.1 | 24.5 ± 0.6 | 24.6 ± 0.4 | 25.4 ± 1.2 | 24.8 ± 0.7 | 28.1 ± 0.8 | 24.6 ± 0.4 | 29.0 ± 0.8 | Abnormality was not observed in 7 days of the test | Abnormality was not observed in 7 days of the test |
| COCCN1C(=O)CCC(N2C(=O)c3cccc(C)c3C2=O)C1=O (stereo not drawn) [Example 24, 4-methyl-2-(1-(2-methoxyethyl)-2,6-dioxopiperidin-3-yl)-isoindolin-1,3-dione] |  | 6.7 ± 0.6 | 81.8 | 18.4 ± 0.7 | 17.7 ± 0.2 | 22.4 ± 1.0 | 22.3 ± 0.7 | 23.4 ± 1.0 | 24.5 ± 1.0 | 23.6 ± 0.9 | 25.2 ± 1.0 | 24.3 ± 0.6 | 27.2 ± 1.3 | 24.7 ± 0.6 | 28.1 ± 2.0 | 24.8 ± 1.5 | 28.9 ± 1.9 |  |  |
